# From PubChem BioAssay (NCI)
#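 96-well plates; 48 h exposure; 5 concentrations. Endpoints by linear interpolation between flanking doses. Not reached: highest tested concentration assigned. At the GI50, growth is halved. TGI: total growth inhibition.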
# What was measured:
# Assay in all cases: growth of human tumour cells (NCI), 48 h
# [1] = system: 786-0 renal
# [2] = system: A498 renal
# [3] = system: ACHN renal
# [4] = system: CCRF-CEM leukemia
# [5] = system: COLO 205 colon
# [6] = system: DU-145 prostate
# [7] = system: EKVX NSCLC
# [8] = system: HCT-15 colon
# [9] = system: HOP-92 NSCLC
# [10] = system: HS 578T breast
# [11] = system: HT29 colon
# [12] = system: KM12 colon
# [13] = system: M14 melanoma
# [14] = system: MALME-3M melanoma
# [15] = system: MDA-MB-435
# [16] = system: MOLT-4 leukemia
# [17] = system: NCI-H23 lung
# [18] = system: NCI-H460 lung
# [19] = system: NCI/ADR-RES ovarian
# [20] = system: OVCAR-4 ovarian
# [21] = system: OVCAR-5 ovarian
# [22] = system: PC-3 prostate
# [23] = system: RPMI-8226 leukemia
# [24] = system: RXF 393 renal
# [25] = system: SF-268 CNS
# [26] = system: SF-539 CNS
# [27] = system: SK-MEL-2 melanoma
# [28] = system: SK-MEL-28 melanoma
# [29] = system: SK-OV-3 ovarian
# [30] = system: SN12C renal
# [31] = system: SNB-75 CNS
# [32] = system: SW-620 colon
# [33] = system: TK-10 renal
# [34] = system: UACC-257 melanoma
# [35] = system: UACC-62 melanoma
# [36] = system: UO-31 renal
# [37] = system: A549 NSCLC
# [38] = system: BT-549 breast
# [39] = system: CAKI-1 renal
# [40] = system: HCC-2998 colon
# [41] = system: HCT-116 colon
# [42] = system: HL-60(TB) leukemia
# [43] = system: HOP-62 NSCLC
# [44] = system: IGROV1 ovarian
# [45] = system: K-562 leukemia
# [46] = system: LOX IMVI melanoma
# [47] = system: MCF7 breast
# [48] = system: MDA-MB-231 breast
# [49] = system: NCI-H226 lung
# [50] = system: OVCAR-3 ovarian
# [51] = system: OVCAR-8 ovarian
# [52] = system: SF-295 CNS
# [53] = system: SK-MEL-5 melanoma
# [54] = system: SNB-19 CNS
# [55] = system: SR leukemia
# [56] = system: T-47D breast
# [57] = system: U251 CNS
structure (smiles),measurement,setting,value
NC(N)=Nc1ccc(Oc2ccc(Nc3ccc(Cl)c(C(F)(F)F)c3)cc2)cc1,GI50,[1],1740 nM
same,TGI,[1],3.29 µM
same,GI50,[2],1280 nM
same,TGI,[2],2.55 µM
same,GI50,[3],1800 nM
same,TGI,[3],3.24 µM
same,GI50,[4],2210 nM
same,TGI,[4],6.91 µM
same,GI50,[5],1730 nM
same,TGI,[5],3.48 µM
same,GI50,[6],1740 nM
same,TGI,[6],3.16 µM
same,GI50,[7],1760 nM
same,TGI,[7],3.56 µM
same,GI50,[8],1940 nM
same,TGI,[8],4.23 µM
same,GI50,[9],1380 nM
same,TGI,[9],2.8 µM
same,GI50,[10],1.9 µM
same,TGI,[10],4.64 µM
same,GI50,[11],1600 nM
same,TGI,[11],3.09 µM
same,GI50,[12],1650 nM
same,TGI,[12],3.11 µM
same,GI50,[13],1650 nM
same,TGI,[13],3.22 µM
same,GI50,[14],1790 nM
same,TGI,[14],3.99 µM
same,GI50,[15],1590 nM
same,TGI,[15],3.02 µM
same,GI50,[16],1830 nM
same,TGI,[16],4.62 µM
same,GI50,[17],1640 nM
same,TGI,[17],3.15 µM
same,GI50,[18],1780 nM
same,TGI,[18],3.32 µM
same,GI50,[19],10.4 µM
same,TGI,[19],27.7 µM
same,GI50,[20],1730 nM
same,TGI,[20],3.27 µM
same,GI50,[21],1710 nM
same,TGI,[21],3.15 µM
same,GI50,[22],1510 nM
same,TGI,[22],3.01 µM
same,GI50,[23],2460 nM
same,TGI,[23],6.97 µM
same,GI50,[24],1580 nM
same,TGI,[24],3.04 µM
same,GI50,[25],1.62 µM
same,TGI,[25],3.39 µM
same,GI50,[26],1690 nM
same,TGI,[26],3.19 µM
same,GI50,[27],1760 nM
same,TGI,[27],3.2 µM
same,GI50,[28],1640 nM
same,TGI,[28],3.05 µM
same,GI50,[29],2180 nM
same,TGI,[29],5.07 µM
same,GI50,[30],1660 nM
same,TGI,[30],3.19 µM
same,GI50,[31],1260 nM
same,TGI,[31],2.61 µM
same,GI50,[32],1700 nM
same,TGI,[32],3.25 µM
same,GI50,[33],1.82 µM
same,TGI,[33],3.42 µM
same,GI50,[34],1640 nM
same,TGI,[34],3.26 µM
same,GI50,[35],1700 nM
same,TGI,[35],3.27 µM
same,GI50,[36],1840 nM
same,TGI,[36],4.51 µM
CC(C)(C)c1ccc(C(=O)Nc2sc3c(c2C(N)=O)CC/C(=N\O)C3)cc1,GI50,[1],3810 nM
same,TGI,[1],23 µM
same,GI50,[2],2090 nM
same,TGI,[2],8.85 µM
same,GI50,[37],3.44 µM
same,TGI,[37],56.6 µM
same,GI50,[3],1550 nM
same,TGI,[3],9.21 µM
same,GI50,[38],1060 nM
same,TGI,[38],8.1 µM
same,GI50,[39],756 nM
same,TGI,[39],10.6 µM
same,GI50,[4],505 nM
same,TGI,[4],9.71 µM
same,GI50,[5],3390 nM
same,TGI,[5],15.7 µM
same,GI50,[6],4210 nM
same,TGI,[6],16.7 µM
same,GI50,[7],3770 nM
same,TGI,[7],19.2 µM
same,GI50,[40],4.79 µM
same,TGI,[40],22.3 µM
same,GI50,[41],1500 nM
same,TGI,[41],12.6 µM
same,GI50,[8],1480 nM
same,TGI,[8],14.5 µM
same,GI50,[42],675 nM
same,TGI,[42],5.64 µM
same,GI50,[43],4.91 µM
same,TGI,[43],20.8 µM
same,GI50,[9],2430 nM
same,TGI,[9],6.86 µM
same,GI50,[10],4.66 µM
same,TGI,[10],58 µM
same,GI50,[11],2680 nM
same,TGI,[11],19.9 µM
same,GI50,[44],3.55 µM
same,TGI,[44],32 µM
same,GI50,[45],597 nM
same,TGI,[45],5.82 µM
same,GI50,[12],2850 nM
same,TGI,[12],13.5 µM
same,GI50,[46],1610 nM
same,TGI,[46],4.35 µM
same,GI50,[13],2830 nM
same,TGI,[13],14.2 µM
same,GI50,[14],2360 nM
same,TGI,[14],6.53 µM
same,GI50,[47],2680 nM
same,TGI,[47],43.1 µM
same,GI50,[48],3.04 µM
same,TGI,[48],9.11 µM
same,GI50,[15],3010 nM
same,TGI,[15],10.2 µM
same,GI50,[16],2090 nM
same,TGI,[16],10.6 µM
same,GI50,[49],2360 nM
same,TGI,[49],9.9 µM
same,GI50,[17],2510 nM
same,TGI,[17],13.4 µM
same,GI50,[18],3060 nM
same,TGI,[18],10.1 µM
same,GI50,[19],2.87 µM
same,TGI,[19],18.6 µM
same,GI50,[50],3.18 µM
same,TGI,[50],13.6 µM
same,GI50,[20],1120 nM
same,TGI,[20],14.2 µM
same,GI50,[21],3430 nM
same,TGI,[21],14.3 µM
same,GI50,[51],3.88 µM
same,TGI,[51],20.2 µM
same,GI50,[22],1310 nM
same,TGI,[22],18.6 µM
same,GI50,[23],1040 nM
same,TGI,[23],4.92 µM
same,GI50,[24],544 nM
same,TGI,[24],3.11 µM
same,GI50,[25],5.38 µM
same,TGI,[25],24.7 µM
same,GI50,[52],3.96 µM
same,TGI,[52],14.8 µM
same,GI50,[26],2390 nM
same,TGI,[26],6.39 µM
same,GI50,[27],2690 nM
same,TGI,[27],7.01 µM
same,GI50,[28],3470 nM
same,TGI,[28],12.4 µM
same,GI50,[53],2000 nM
same,TGI,[53],4.21 µM
same,GI50,[29],3530 nM
same,TGI,[29],19.2 µM
same,GI50,[30],3200 nM
same,TGI,[30],12.2 µM
same,GI50,[54],4.18 µM
same,TGI,[54],18.4 µM
same,GI50,[31],3650 nM
same,TGI,[31],14.9 µM
same,GI50,[55],1360 nM
same,TGI,[55],6.36 µM
same,GI50,[32],1930 nM
same,TGI,[32],17.4 µM
same,GI50,[56],739 nM
same,TGI,[56],8.06 µM
same,GI50,[33],5.81 µM
same,TGI,[33],53.9 µM
same,GI50,[57],3.66 µM
same,TGI,[57],28.2 µM
same,GI50,[34],3270 nM
same,TGI,[34],11.7 µM
same,GI50,[35],1950 nM
same,TGI,[35],8.99 µM
